In ChEMBL document CHEMBL5724914, “Linking interpersonal differences in gut microbiota composition and drug biotransformation activity” (2024):

Assays:
[1] = The drug is tested on Z-030 corresponding to mouse gut metagenome with ENA study accession number: PRJEB37062 and ENA sample accession number: ERS12561829 for biotransformation under anaerobic condition. The drug concentrations were measured over 9 timepoints collected between 0 and 24 hours of incubation by liquid-chromatography-coupled mass spectrometry (LC–MS); conditions: 2 µM
[2] = The drug is tested on Z-028 corresponding to mouse gut metagenome with ENA study accession number: PRJEB37062 and ENA sample accession number: ERS12561827 for biotransformation under anaerobic condition. The drug concentrations were measured over 9 timepoints collected between 0 and 24 hours of incubation by liquid-chromatography-coupled mass spectrometry (LC–MS); conditions: 2 µM
[3] = The drug is tested on Z-026 corresponding to metagenome with ENA study accession number: PRJEB37062 and ENA sample accession number: ERS12561825 for biotransformation under anaerobic condition. The drug concentrations were measured over 9 timepoints collected between 0 and 24 hours of incubation by liquid-chromatography-coupled mass spectrometry (LC–MS); conditions: 2 µM
[4] = The drug is tested on Z-017 corresponding to mouse gut metagenome with ENA study accession number: PRJEB37062 and ENA sample accession number: ERS12561816 for biotransformation under anaerobic condition. The drug concentrations were measured over 9 timepoints collected between 0 and 24 hours of incubation by liquid-chromatography-coupled mass spectrometry (LC–MS); conditions: 2 µM
[5] = The drug is tested on Z-009 corresponding to pig gut metagenome with ENA study accession number: PRJEB37062 and ENA sample accession number: ERS12561809 for biotransformation under anaerobic condition. The drug concentrations were measured over 9 timepoints collected between 0 and 24 hours of incubation by liquid-chromatography-coupled mass spectrometry (LC–MS); conditions: 2 µM
[6] = The drug is tested on Z-007 corresponding to rat gut metagenome with ENA study accession number: PRJEB37062 and ENA sample accession number: ERS12561807 for biotransformation under anaerobic condition. The drug concentrations were measured over 9 timepoints collected between 0 and 24 hours of incubation by liquid-chromatography-coupled mass spectrometry (LC–MS); conditions: 2 µM
[7] = The drug is tested on Z-005 corresponding to metagenome with ENA study accession number: PRJEB37062 and ENA sample accession number: ERS12561805 for biotransformation under anaerobic condition. The drug concentrations were measured over 9 timepoints collected between 0 and 24 hours of incubation by liquid-chromatography-coupled mass spectrometry (LC–MS); conditions: 2 µM
[8] = The drug is tested on Z-004 corresponding to metagenome with ENA study accession number: PRJEB37062 and ENA sample accession number: ERS12561804 for biotransformation under anaerobic condition. The drug concentrations were measured over 9 timepoints collected between 0 and 24 hours of incubation by liquid-chromatography-coupled mass spectrometry (LC–MS); conditions: 2 µM
[9] = The drug is tested on WLS-240 corresponding to human gut metagenome with ENA study accession number: PRJEB37062 and ENA sample accession number: ERS12561773 for biotransformation under anaerobic condition. The drug concentrations were measured over 9 timepoints collected between 0 and 24 hours of incubation by liquid-chromatography-coupled mass spectrometry (LC–MS); conditions: 2 µM
[10] = The drug is tested on WLS-039 corresponding to human gut metagenome with ENA study accession number: PRJEB37062 and ENA sample accession number: ERS12561746 for biotransformation under anaerobic condition. The drug concentrations were measured over 9 timepoints collected between 0 and 24 hours of incubation by liquid-chromatography-coupled mass spectrometry (LC–MS); conditions: 2 µM
[11] = human gut metagenome, 24 h, 2 µM
[12] = human gut metagenome, 24 h, 2 µM; remark: listed apart in the source
[13] = human gut metagenome, 24 h, 2 µM; remark: listed apart in the source
[14] = human gut metagenome, 24 h, 2 µM; remark: listed apart in the source
[15] = human gut metagenome, 24 h, 2 µM; remark: listed apart in the source
[16] = human gut metagenome, 24 h, 2 µM; remark: listed apart in the source
[17] = human gut metagenome, 24 h, 2 µM; remark: listed apart in the source
[18] = human gut metagenome, 24 h, 2 µM; remark: listed apart in the source
[19] = The drug is tested on WLS-006 corresponding to human gut metagenome with ENA study accession number: PRJEB37062 and ENA sample accession number: ERS12561741 for biotransformation under anaerobic condition. The drug concentrations were measured over 9 timepoints collected between 0 and 24 hours of incubation by liquid-chromatography-coupled mass spectrometry (LC–MS); conditions: 2 µM
[20] = human gut metagenome, 24 h, 2 µM; remark: listed apart in the source
Also: call rule not given here.

SMILES	Bacterial Biotransformation [1]	Bacterial Biotransformation [2]	Bacterial Biotransformation [3]	Bacterial Biotransformation [4]	Bacterial Biotransformation [5]	Bacterial Biotransformation [6]	Bacterial Biotransformation [7]	Bacterial Biotransformation [8]	Bacterial Biotransformation [9]	Bacterial Biotransformation [10]	Bacterial Biotransformation [11]	Bacterial Biotransformation [12]	Bacterial Biotransformation [13]	Bacterial Biotransformation [14]	Bacterial Biotransformation [15]	Bacterial Biotransformation [16]	Bacterial Biotransformation [17]	Bacterial Biotransformation [18]	Bacterial Biotransformation [19]	Bacterial Biotransformation [20]
CN1C[C@H](C(=O)N[C@]2(C)O[C@@]3(O)[C@@H]4CCCN4C(=O)[C@H](Cc4ccccc4)N3C2=O)C[C@@H]2c3cccc4[nH]cc(c34)C[C@H]21.CS(=O)(=O)O [DIHYDROERGOTAMINE MESYLATE]	Compound NOT metabolized	Compound NOT metabolized	Compound metabolized	Compound NOT metabolized	Compound NOT metabolized	Compound NOT metabolized	Compound NOT metabolized	Compound NOT metabolized	–	–	–	–	–	–	–	–	–	–	–	–
C#C[C@]1(OC(C)=O)CC[C@H]2[C@@H]3CCC4=CC(=O)CC[C@@H]4[C@H]3CC[C@@]21C [NORETHINDRONE ACETATE]	Compound NOT metabolized	Compound metabolized	–	Compound metabolized	Compound metabolized	–	Compound metabolized	–	Compound metabolized	Compound metabolized	Compound metabolized	Compound metabolized	Compound metabolized	Compound metabolized	Compound metabolized	Compound NOT metabolized	Compound NOT metabolized	Compound metabolized	–	–
O=C1C(CC[S+]([O-])c2ccccc2)C(=O)N(c2ccccc2)N1c1ccccc1 (stereo unspecified) [SULFINPYRAZONE]	Compound NOT metabolized	Compound metabolized	Compound metabolized	Compound NOT metabolized	Compound metabolized	Compound NOT metabolized	–	Compound NOT metabolized	Compound metabolized	Compound metabolized	Compound metabolized	Compound metabolized	Compound metabolized	Compound metabolized	Compound metabolized	Compound NOT metabolized	Compound metabolized	Compound metabolized	Compound metabolized	Compound metabolized
CSc1ccc2c(c1)C(N1CCN(C)CC1)Cc1ccccc1S2.O=C(O)/C=C\C(=O)O (stereo unspecified)	Compound NOT metabolized	Compound NOT metabolized	Compound NOT metabolized	–	Compound metabolized	Compound metabolized	Compound metabolized	Compound metabolized	Compound NOT metabolized	Compound metabolized	Compound NOT metabolized	Compound NOT metabolized	Compound NOT metabolized	Compound NOT metabolized	Compound NOT metabolized	Compound NOT metabolized	Compound metabolized	Compound NOT metabolized	Compound NOT metabolized	Compound NOT metabolized
CCOC(=O)[C@H](CCc1ccccc1)N[C@@H](C)C(=O)N1CCC[C@H]1C(=O)O.O=C(O)/C=C\C(=O)O [ENALAPRIL MALEATE]	Compound NOT metabolized	Compound NOT metabolized	Compound NOT metabolized	–	Compound metabolized	Compound NOT metabolized	Compound NOT metabolized	Compound NOT metabolized	Compound NOT metabolized	Compound NOT metabolized	Compound NOT metabolized	Compound NOT metabolized	Compound NOT metabolized	Compound NOT metabolized	Compound NOT metabolized	Compound NOT metabolized	Compound NOT metabolized	Compound NOT metabolized	Compound NOT metabolized	Compound NOT metabolized
CN1[C@@H]2CC[C@H]1C[C@@H](OC(=O)[C@H](CO)c1ccccc1)C2 [HYOSCYAMINE]	Compound NOT metabolized	Compound NOT metabolized	Compound NOT metabolized	Compound NOT metabolized	Compound metabolized	Compound NOT metabolized	–	Compound NOT metabolized	Compound metabolized	–	–	–	–	Compound NOT metabolized	–	Compound NOT metabolized	Compound metabolized	–	–	Compound NOT metabolized
CN1CCC[C@@H]1CCO[C@](C)(c1ccccc1)c1ccc(Cl)cc1.O=C(O)/C=C/C(=O)O [CLEMASTINE FUMARATE]	Compound NOT metabolized	Compound NOT metabolized	Compound NOT metabolized	–	Compound NOT metabolized	Compound NOT metabolized	Compound NOT metabolized	Compound NOT metabolized	Compound NOT metabolized	Compound metabolized	Compound metabolized	Compound metabolized	Compound NOT metabolized	Compound NOT metabolized	Compound metabolized	Compound NOT metabolized	Compound metabolized	Compound metabolized	Compound NOT metabolized	Compound metabolized
